Assay results taken from ChEMBL document CHEMBL1201861, “Genomics of Drug Sensitity in Cancer screening data, Wellcome Trust Sanger Institute”.
pIC50: −log10 of the molar value.

How the values were obtained:
MEL-HO = assay: cells; type: functional, cell-based, Homo sapiens; conditions: Homo sapiens, MEL-HO
Description: SANGER: Inhibition of human MEL-HO cell growth in a cell viability assay.

COR-L23 = assay: cells; type: functional, cell-based, Homo sapiens; conditions: Homo sapiens, COR-L23
Description: SANGER: Inhibition of human COR-L23 cell growth in a cell viability assay.

BC-3 = assay: cells; type: functional, cell-based; conditions: Homo sapiens
Description: SANGER: Inhibition of human BC-3 cell growth in a cell viability assay.

HLE = assay: cells; type: functional, cell-based, Homo sapiens; conditions: Homo sapiens, HLE
Description: SANGER: Inhibition of human HLE cell growth in a cell viability assay.

COR-L279 = assay: SANGER: Inhibition of human COR-L279 cell growth in a cell viability assay.; type: functional, cell-based
EW-16 = assay: cells; type: functional, cell-based, Homo sapiens; conditions: Homo sapiens, EW-16
Description: SANGER: Inhibition of human EW-16 cell growth in a cell viability assay.

ARH-77 = assay: cells; type: functional, cell-based; conditions: Homo sapiens
Description: SANGER: Inhibition of human ARH-77 cell growth in a cell viability assay.

SK-MEL-1 = assay: cells; type: functional, cell-based; conditions: Homo sapiens
Description: SANGER: Inhibition of human SK-MEL-1 cell growth in a cell viability assay.

EHEB = assay: cells; type: functional, cell-based; conditions: Homo sapiens
Description: SANGER: Inhibition of human EHEB cell growth in a cell viability assay.

NALM-6 = assay: cells; type: functional, cell-based; conditions: Homo sapiens
Description: SANGER: Inhibition of human NALM-6 cell growth in a cell viability assay.

MC-CAR = assay: cells; type: functional, cell-based; conditions: Homo sapiens
Description: SANGER: Inhibition of human MC-CAR cell growth in a cell viability assay.

CHP-126 = assay: cells; type: functional, cell-based; conditions: Homo sapiens
Description: SANGER: Inhibition of human CHP-126 cell growth in a cell viability assay.

Kasumi 1 = assay: cells; type: functional, cell-based; conditions: Homo sapiens
Description: SANGER: Inhibition of human KASUMI-1 cell growth in a cell viability assay.

CAL-148 = assay: cells; type: functional, cell-based; conditions: Homo sapiens
Description: SANGER: Inhibition of human CAL-148 cell growth in a cell viability assay.

SIMA = assay: cells; type: functional, cell-based, Homo sapiens; conditions: Homo sapiens, SIMA
Description: SANGER: Inhibition of human SIMA cell growth in a cell viability assay.

MHH-ES-1 = assay: cells; type: functional, cell-based, Homo sapiens; conditions: Homo sapiens, MHH-ES-1
Description: SANGER: Inhibition of human MHH-ES-1 cell growth in a cell viability assay.

TK-10 = assay: cells; type: functional, cell-based, Homo sapiens; conditions: Homo sapiens, TK-10
Description: SANGER: Inhibition of human TK10 cell growth in a cell viability assay.

HCE-T = assay: cells; type: functional, cell-based, Homo sapiens; conditions: Homo sapiens, HCE-T
Description: SANGER: Inhibition of human HCE-T cell growth in a cell viability assay.

NCI-H2081 = assay: cells; type: functional, cell-based; conditions: Homo sapiens
Description: SANGER: Inhibition of human NCI-H2081 cell growth in a cell viability assay.

DoTc2-4510 = assay: cells; type: functional, cell-based, Homo sapiens; conditions: Homo sapiens, DoTc2-4510
ST486 = assay: SANGER: Inhibition of human ST486 cell growth in a cell viability assay.; type: functional, cell-based
ChaGo-K-1 = assay: cells; type: functional, cell-based; conditions: Homo sapiens
Description: SANGER: Inhibition of human ChaGo-K-1 cell growth in a cell viability assay.

OVCAR-8 = assay: cells; type: functional, cell-based, Homo sapiens; conditions: Homo sapiens, OVCAR-8
Description: SANGER: Inhibition of human OVCAR-8 cell growth in a cell viability assay.

KM-H2 = assay: cells; type: functional, cell-based; conditions: Homo sapiens
Description: SANGER: Inhibition of human KM-H2 cell growth in a cell viability assay.

HT55 = assay: cells; type: functional, cell-based, Homo sapiens; conditions: Homo sapiens, HT55
Description: SANGER: Inhibition of human HT55 cell growth in a cell viability assay.

NCI-H716 = assay: cells; type: functional, cell-based; conditions: Homo sapiens
Description: SANGER: Inhibition of human NCI-H716 cell growth in a cell viability assay.

NCCIT = assay: SANGER: Inhibition of human NCCIT cell growth in a cell viability assay.; type: functional, cell-based
NCI-H748 = assay: cells; type: functional, cell-based; conditions: Homo sapiens
Description: SANGER: Inhibition of human NCI-H748 cell growth in a cell viability assay.

P31-FUJ = assay: cells; type: functional, cell-based; conditions: Homo sapiens
Description: SANGER: Inhibition of human P31-FUJ cell growth in a cell viability assay.

KARPAS-299 = assay: cells; type: functional, cell-based; conditions: Homo sapiens
Description: SANGER: Inhibition of human KARPAS-299 cell growth in a cell viability assay.

NCI-H524 = assay: cells; type: functional, cell-based; conditions: Homo sapiens
Description: SANGER: Inhibition of human NCI-H524 cell growth in a cell viability assay.

NCI-H1694 = assay: cells; type: functional, cell-based; conditions: Homo sapiens
Description: SANGER: Inhibition of human NCI-H1694 cell growth in a cell viability assay.

NCI-H64 = assay: cells; type: functional, cell-based; conditions: Homo sapiens
Description: SANGER: Inhibition of human NCI-H64 cell growth in a cell viability assay.

SCC-3 = assay: cells; type: functional, cell-based; conditions: Homo sapiens
Description: SANGER: Inhibition of human SCC-3 cell growth in a cell viability assay.

SKG-IIIa = assay: cells; type: functional, cell-based, Homo sapiens; conditions: Homo sapiens, SKG-IIIa
Description: SANGER: Inhibition of human SKG-IIIa cell growth in a cell viability assay.

HPAF-II = assay: cells; type: functional, cell-based, Homo sapiens; conditions: Homo sapiens, HPAF-II
Description: SANGER: Inhibition of human HPAF-II cell growth in a cell viability assay.

IST-SL2 = assay: cells; type: functional, cell-based; conditions: Homo sapiens
Description: SANGER: Inhibition of human IST-SL2 cell growth in a cell viability assay.

SIG-M5 = assay: cells; type: functional, cell-based; conditions: Homo sapiens
Description: SANGER: Inhibition of human SIG-M5 cell growth in a cell viability assay.

MRK-nu-1 = assay: cells; type: functional, cell-based; conditions: Homo sapiens
Description: SANGER: Inhibition of human MRK-nu-1 cell growth in a cell viability assay.

DMS-153 = assay: cells; type: functional, cell-based; conditions: Homo sapiens
Description: SANGER: Inhibition of human DMS-153 cell growth in a cell viability assay.

SNU-16 = assay: cells; type: functional, cell-based; conditions: Homo sapiens
Description: SANGER: Inhibition of human NCI-SNU-16 cell growth in a cell viability assay.

ESS-1 = assay: cells; type: functional, cell-based, Homo sapiens; conditions: Homo sapiens, ESS-1
Description: SANGER: Inhibition of human ESS-1 cell growth in a cell viability assay.

RL95-2 = assay: cells; type: functional, cell-based; conditions: Homo sapiens
Description: SANGER: Inhibition of human RL95-2 cell growth in a cell viability assay.

IM-9 = assay: SANGER: Inhibition of human IM-9 cell growth in a cell viability assay.; type: functional, cell-based
CaR-1 = assay: cells; type: functional, cell-based, Homo sapiens; conditions: Homo sapiens, CaR-1
Description: SANGER: Inhibition of human CaR-1 cell growth in a cell viability assay.

RPMI-8866 = assay: cells; type: functional, cell-based; conditions: Homo sapiens
Description: SANGER: Inhibition of human RPMI-8866 cell growth in a cell viability assay.

NCI-H1963 = assay: cells; type: functional, cell-based; conditions: Homo sapiens
Description: SANGER: Inhibition of human NCI-H1963 cell growth in a cell viability assay.

NCI-H460 = assay: cells; type: functional, cell-based, Homo sapiens; conditions: Homo sapiens, NCI-H460
Description: SANGER: Inhibition of human NCI-H460 cell growth in a cell viability assay.

NCI-H322M = assay: cells; type: functional, cell-based; conditions: Homo sapiens
Description: SANGER: Inhibition of human NCI-H322M cell growth in a cell viability assay.

HCT-15 = assay: cells; type: functional, cell-based, Homo sapiens; conditions: Homo sapiens, HCT-15
Description: SANGER: Inhibition of human HCT-15 cell growth in a cell viability assay.

8305C = assay: cells; type: functional, cell-based, Homo sapiens; conditions: Homo sapiens, 8305C
Description: SANGER: Inhibition of human 8305C cell growth in a cell viability assay.

## COC(=O)CNC(=O)C(=O)OC
MEL-HO
  pIC50: 2.44
COR-L23
  pIC50: 2.73
BC-3
  pIC50: 3.52
HLE
  pIC50: 4.24
COR-L279
  pIC50: < 2.40
EW-16
  pIC50: 3.42
ARH-77
  pIC50: 3.59
SK-MEL-1
  pIC50: 2.62
EHEB
  pIC50: 3.57
NALM-6
  pIC50: 4.07
MC-CAR
  pIC50: 3.29
CHP-126
  pIC50: 2.46
Kasumi 1
  pIC50: 3.91
CAL-148
  pIC50: < 2.40
SIMA
  pIC50: 3.07
MHH-ES-1
  pIC50: 3.94
TK-10
  pIC50: 3.45
HCE-T
  pIC50: 2.46
NCI-H2081
  pIC50: 3.00
DoTc2-4510
  pIC50: 3.81
ST486
  pIC50: 4.15
ChaGo-K-1
  pIC50: 2.81
OVCAR-8
  pIC50: 3.23
KM-H2
  pIC50: < 2.40
HT55
  pIC50: 3.26
NCI-H716
  pIC50: 2.76
NCCIT
  pIC50: 4.00
NCI-H748
  pIC50: 3.60
P31-FUJ
  pIC50: < 2.40
KARPAS-299
  pIC50: 4.01
NCI-H524
  pIC50: 2.56
NCI-H1694
  pIC50: 3.54
NCI-H64
  pIC50: 3.56
SCC-3
  pIC50: 2.76
SKG-IIIa
  pIC50: 3.51
HPAF-II
  pIC50: 3.00
IST-SL2
  pIC50: 3.80
SIG-M5
  pIC50: 4.24
MRK-nu-1
  pIC50: 2.75
DMS-153
  pIC50: < 2.40
SNU-16
  pIC50: < 2.40
ESS-1
  pIC50: 3.70
RL95-2
  pIC50: 2.45
IM-9
  pIC50: < 2.40
CaR-1
  pIC50: 3.66
RPMI-8866
  pIC50: < 2.40
NCI-H1963
  pIC50: 2.99
NCI-H460
  pIC50: 3.80
NCI-H322M
  pIC50: < 2.40
HCT-15
  pIC50: 2.74
8305C
  pIC50: 3.22

## COc1cc([C@@H]2c3cc4c(cc3[C@@H](O[C@@H]3O[C@@H]5CO[C@@H](C)O[C@H]5[C@H](O)[C@H]3O)[C@H]3COC(=O)[C@H]23)OCO4)cc(OC)c1O [ETOPOSIDE]
MEL-HO
  pIC50: 6.14
COR-L23
  pIC50: 5.21
BC-3
  pIC50: 5.61
HLE
  pIC50: 6.27
COR-L279
  pIC50: 5.90
EW-16
  pIC50: 7.67
ARH-77
  pIC50: 5.66
SK-MEL-1
  pIC50: < 4.80
EHEB
  pIC50: < 4.80
NALM-6
  pIC50: 6.69
MC-CAR
  pIC50: 6.24
CHP-126
  pIC50: 5.20
Kasumi 1
  pIC50: 5.88
CAL-148
  pIC50: 6.20
SIMA
  pIC50: 5.05
MHH-ES-1
  pIC50: 6.33
TK-10
  pIC50: 5.13
HCE-T
  pIC50: < 4.80
NCI-H2081
  pIC50: 5.31
DoTc2-4510
  pIC50: 5.98
ST486
  pIC50: 5.65
ChaGo-K-1
  pIC50: 5.42
OVCAR-8
  pIC50: 5.96
KM-H2
  pIC50: 5.78
HT55
  pIC50: < 4.80
NCI-H716
  pIC50: < 4.80
NCCIT
  pIC50: < 4.80
NCI-H748
  pIC50: 6.06
P31-FUJ
  pIC50: < 4.80
KARPAS-299
  pIC50: < 4.80
NCI-H524
  pIC50: < 4.80
NCI-H1694
  pIC50: 5.86
NCI-H64
  pIC50: 5.40
SCC-3
  pIC50: 5.92
SKG-IIIa
  pIC50: < 4.80
HPAF-II
  pIC50: < 4.80
IST-SL2
  pIC50: 6.07
SIG-M5
  pIC50: 6.88
MRK-nu-1
  pIC50: 6.93
DMS-153
  pIC50: < 4.80
SNU-16
  pIC50: < 4.80
ESS-1
  pIC50: 6.28
RL95-2
  pIC50: 5.95
IM-9
  pIC50: < 4.80
CaR-1
  pIC50: 5.07
RPMI-8866
  pIC50: 5.33
NCI-H1963
  pIC50: 4.92
NCI-H460
  pIC50: 6.63
NCI-H322M
  pIC50: < 4.80
HCT-15
  pIC50: 5.10
8305C
  pIC50: 5.63
